Like-named read-outs stand apart in the source and are kept apart here.
How the values were obtained:
[1] = target: WDR5 protein (22-334aa) with MLL1 polypeptide (3672-3773aa) (Homo sapiens, UniProt P61964); assay: WDR5-MLL PPI inhibitory activity test (HTRF); format: binding; details: His-tagged WDR5 and biotin-tagged MLL1 polypeptide
Excerpt: Test Example 1: WDR5-MLL PPI Inhibitory Activity Test
Effect of the compounds on WDR5 (WD Repeat Domain 5) and MLL1 (mixed-lineage leukemia 1) peptides at molecular level.
The effect of the compound on the interaction of WDR5 protein (22-334aa) with MLL1 polypeptide (3672-3773aa) was detected by HTRF (Homogeneous Time-Resolved Fluorescence) technology. When the N-terminal His-tagged WDR5 recognized by the Anti-6His-Eu cryptate donor interacts with the biotin-tagged MLL1 polypeptide recognized by the streptavidin-APC receptor, the donor and acceptor are pulled close enough to produce fluorescence resonance energy transfer (FRET). […] Therefore, the decrease in FRET signal can reflect the compound's inhibition on the interaction of WDR5 with MLL1 polypeptide.
The compound to be tested was diluted 3-fold with DMSO. […] Then the compound was diluted with reaction buffer (25 mM HEPES pH=7.5, 100 mM NaCl, 0.05% Tween 20) to control the final concentration of DMSO at 0.5%. In a 384-well plate, 1 μL of compound and 3 μL of 42 nM WDR5 protein were added, centrifuged at 1000 rpm for 1 min, incubated at room temperature for 60 min, followed by adding 3 μL of 333 nM MLL1 polypeptide with incubation at room temperature for 10 min, and followed by adding 3 μL of a mixed liquid of Anti-6His-Eu cryptate and streptavidin-APC with centrifugation at 1000 rpm for 1 mi and incubation at room temperature protected from light for 60 min, using a multifunction microplate reader (EnVision®2105) to read the signal. The following controls were set up per plate: control group (1 μL with 5% DMSO reaction buffer, 3 μL of 42 nM WDR5, 3 μL of MLL1 polypeptide, 3 μL of Anti-6His-Eu cryptate and streptavidin-APC). Blank group (1 μL reaction buffer with 5% DMSO, 3 μL reaction buffer, 3 μL MLL1 polypeptide, 3 μL Anti-6His-Eu cryptate and streptavidin-APC). The test data was calculated according to the signal ratio of two beams of fluorescence at different wavelengths: (665 nm signal/620 nm signal)*10000. […] The IC50 value was calculated using XLfit software.

MV4-11 cells = assay: MV4-11 cell proliferation inhibition experiment (CellTiter-Glo); format: cell-based; details: 6 days, read-out: cell proliferation inhibitory activity
Description: Test Example 2: MV4-11 Cell (ATCC: CRL-9591) Proliferation Inhibition Experiment
ATP in living cells was quantitatively detected by CellTiter-Glo (Promega-G7573) Luminescence Cell Viability Assay Kit to determine the effect of the compounds to be tested on cell proliferation. • Step 1: MV4-11 cells were seeded in 96-well plates (Greiner-655098) at a density of 1,500 cells per well with a volume of 140 μL per well; Cell culture medium components included RPM11640 (Gibco-A10491-01)+10% FBS (Gibco-10099-141C)+1% Penicillin-Streptomycin (5,000 U/mL, Gibco-15070-063). • Step 2: On the day of cell seeding, the cells were treated with the compound to be tested. The compound to be tested was diluted with a 3-fold gradient, and a total of 9 concentration gradients were set. DMSO (Sigma, D2650) with 0.5% final concentration or a DMSO solution containing the compound to be tested was added per well with 2 or 3 replicate wells at each concentration point. The plates were incubated at 37° C. in a 5% CO2 incubator (Thermo Scientific Steri-Cycle 371) for 6 days. • Step 3: The cell viability in the control and treatment groups was detected with CellTiter-Glo Luminescent Cell Viability Assay Kit. 50 μL of CellTiter-Glo was added per well, mixed well, and incubated for 15 min at room temperature protected from light. According to the kit instructions, the chemiluminescence signal was read using a multifunctional microplate reader (EnVision, PerkinElmer).
The inhibition percentage (%) of the compound at each concentration point was calculated by the following formula:
Inhibition Percentage (%)=(1−signal value of the group treated with the compound/signal value of the group treated with DMSO)*100.
The value of cell proliferation semi-inhibitory concentration IC50 was calculated using GraphPad Prism software, and the results are shown in Table 2.

| SMILES | IC50 [1] [µM] | IC50 (MV4-11 cells; Homo sapiens, 144 h) [µM] | IC50 (MV4-11 cells) [µM] |
| --- | --- | --- | --- |
| CCOc1cc([C@H](C)N2CC3(CCC3)c3c(CN4CCN(C)CC4)cc(Cn4ccnc4NC)cc3C2=O)ncc1C#N [Compound 73, (S)-4-ethoxy-6-(1-(7′-((2-(methylamino)-1H-imidazol-1-yl)methyl)-5′-((4-methylpiperazin-1-yl)methyl)-1′-one-1′H-spiro[cyclobutan-1,4′-isoquinoline]-2′(3′H)-yl)ethyl)nicotinonitrile] | < 0.02 | < 0.05 | – |
| CCOc1cc([C@H](C)N2CC3(CC3)c3c(CN(CC)CC)cc(Cn4ccnc4NC)cc3C2=O)ncc1F [Compound 10, (S)-5′-(diethylamino)methyl)-2′-(1-(4-ethoxy-5-fluoropyridine-2-ylethyl)-7′-((2-(methylamino)-1H-imidazol-1-yl)methyl)-2′,3′-dihydro-1′H-spiro[cyclopropan-1,4′-isoquinoline]-1′-one] | < 0.02 | 0.05 to 0.2 | – |
| CCOc1cc([C@H](C)N2CC3(CC3)c3c(CN4C5CC4CN(C)C5)cc(Cn4ccnc4NC)cc3C2=O)ncc1F [Compound 70, 2′-((S)-1-(4-ethoxy-5-fluoropyridine-2-yl)ethyl)-5′-((3-methyl-3,6-diazadicyclo[3.1.1]heptan-6-yl)methyl)-7′-((2-(methylamino)-1H-imidazol-1-yl)methyl)-2′,3′-dihydro-1′H-spiro[cyclopropan-1,4′-isoquinoline]-1′-one] | < 0.02 | < 0.05 | – |
| CCOc1cc(C(C)N2CC3(CC3(F)F)c3c(CN(C)C)cc(Cn4ccnc4NC)cc3C2=O)ncc1F (single isomer, unassigned) [Compound 89] | < 0.02 | – | < 0.05 |
| [2H]C([2H])([2H])C([2H])([2H])Oc1cc(C(C)N2CC3(CCC3)c3c(CN(C)C)cc(Cn4ccnc4NC)cc3C2=O)ncc1C#N (stereo not drawn) [Compound 111, 6-(1-(5′-((dimethylamino)methyl)-7′-((2-(methylamino)-1H-imidazol-1-yl)methyl)-1′-oxo-1′H-spiro[cyclobutan-1,4′-isoquinoline]-2′(3′H)-yl)ethyl)-4-(ethoxy-d5)nicotinonitrile] | < 0.02 | < 0.05 | – |
| CCOc1cc([C@H](C)N2CC3(CCC3)c3c(CN4CC[C@H](O)C4)cc(Cn4ccnc4NC)cc3C2=O)ncc1F [Compound 85, 2′-((S)-1-(4-ethoxy-5-fluoropyridine-2-yl)ethyl)-5′-(((S)-3-hydroxylpyrrolidin-1-yl)methyl)-7′-((2-(methylamino)-1H-imidazol-1-yl)methyl)-2′,3′-dihydro-1′H-spiro[cyclobutan-1,4′-isoquinoline]-1′-one] | < 0.02 | < 0.05 | – |
| CCOc1cc([C@H](C)N2CC3(CCC3)c3c(CN4CC[C@@H](O)C4)cc(Cn4ccnc4NC)cc3C2=O)ncc1F [Compound 84, 2′-((S)-1-(4-ethoxy-5-fluoropyridine-2-yl)ethyl)-5′-(((R)-3hydroxylpyrrolidin-1-yl)methyl)-7′-((2-(methylamino)-1H-imidazol-1-yl)methyl)-2′,3′-dihydro-1′H-spiro[cyclobutyl-1,4′-isoquinoline]-1′-one] | < 0.02 | < 0.05 | – |
| CCOc1cc(CN2CC3(CCC3)c3c(CN(C)C)cc(Cn4ccnc4NC)cc3C2=O)ncc1C#N [Compound 77, 6-((5′-((dimethylamino)methyl)-7′-((2-(methylamino)-1H-imidazol-1-yl)methyl)-1′-one-1′H-spiro[cyclobutan-1,4′-isoquinoline]-2′(3′H)-yl)methyl)-4-ethoxynicotinonitrile] | < 0.02 | < 0.05 | – |
| CCOc1cc([C@H](C)N2CC3(CC3)c3c(CN4CCN(CC(F)(F)F)CC4)cc(Cn4ccnc4NC)cc3C2=O)ncc1C#N [Compound 63, (S)-4-ethoxy-6-(1-(7′-((2-(methylamino)-1H-imidazol-1-yl)methyl)-1′-one-5′-((4-(2,2,2-trifluoroethyl)piperazin-1-yl)methyl)-1′H-spiro[cyclopropan-1,4′-isoquinoline]-2′(3′H)-yl)ethyl)nicotinonitrile] | < 0.02 | 0.05 to 0.2 | – |

— US20240101535A1, “DIHYDROISOQUINOLINONE DERIVATIVE AND APPLICATION THEREOF” (ETERN BIOPHARMA (SHANGHAI) CO., LTD., priority 2020, published 2024)
